Assay results taken from publication PMC4770092, “Subnanometre enzyme mechanics probed by single-molecule force spectroscopy” (Nature Communications, 2016).

Tests used:
AdK 42-144 [1] = biological target: T1, AdK 42-144 (Aquifex aeolicus, UniProt O66490, INS42C/INS144C); assay: single-molecule optical tweezers, AP5A competition assay; format: binding; details: 50 mM Tris pH 7.5, 200 mM KCl, about 10 pN load
T1 construct: full length, Cys inserted between 42/43 and 144/145; N-terminal spacer MAAKGELSG, C-terminal spacer and His6 kept; synthetic gene in pET11a, E. coli BL21(DE3); DNA handles on Cys in trap assay

AdK 42-144 [2] = biological target: T1, AdK 42-144; assay: single-molecule optical tweezers, lid closing/opening; format: binding; details: 50 mM Tris pH 7.5, 200 mM KCl; bisubstrate inhibitor

T1 sequence (O66490 other isoform, or with tags, fused parts or gaps INS42C/INS144C): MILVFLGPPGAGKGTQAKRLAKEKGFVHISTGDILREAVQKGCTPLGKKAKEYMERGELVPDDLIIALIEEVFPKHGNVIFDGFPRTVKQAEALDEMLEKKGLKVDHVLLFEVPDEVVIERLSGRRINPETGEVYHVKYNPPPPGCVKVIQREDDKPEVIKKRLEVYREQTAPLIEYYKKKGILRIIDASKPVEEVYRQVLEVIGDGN

| Structure (SMILES) | single-molecule optical tweezers, lid closing/opening (AdK 42-144 [2]) | further results |
| --- | --- | --- |
| Nc1ncnc2c1ncn2[C@@H]1O[C@H](COP(=O)(O)OP(=O)(O)O)[C@@H](O)[C@H]1O [ADP] |  | KD (AdK 42-144 [1]; Mg-ADP, AP5A competitor): nucleotides ADP (yellow), Mg-ADP (green) and Mg-ATP (blue) |
| Nc1ncnc2c1ncn2[C@@H]1O[C@H](COP(=O)(O)OP(=O)(O)OP(=O)(O)OP(=O)(O)OC[C@H]2O[C@@H](n3cnc4c(N)ncnc43)[C@H](O)[C@@H]2O)[C@@H](O)[C@H]1O [AP4A] | We found that AP4A induces full closing of AdK indistinguishable from AP5A |  |
| Nc1ncnc2c1ncn2[C@@H]1O[C@H](COP(=O)(O)OP(=O)(O)OP(=O)(O)OP(=O)(O)OP(=O)(O)OP(=O)(O)OC[C@H]2O[C@@H](n3cnc4c(N)ncnc43)[C@H](O)[C@@H]2O)[C@@H](O)[C@H]1O [AP6A] | AP6A binds with the same affinity as AP5A despite its significantly reduced closing distance |  |
| Nc1ncnc2c1ncn2[C@@H]1O[C@H](COP(=O)(O)OP(=O)(O)OP(=O)(O)O)[C@@H](O)[C@H]1O [ATP] |  | KD (AdK 42-144 [1]; Mg-ATP, 1 μM AP5A competitor): nucleotides ADP (yellow), Mg-ADP (green) and Mg-ATP (blue) |
